Measured values as given in patent publication US9902702B2, “Spirocycloheptanes as inhibitors of rock” (BRISTOL-MYERS SQUIBB COMPANY, priority 2014, dated 2018).
pIC50: −log10 of the molar value.

Target: ROCK2 (Homo sapiens, UniProt O75116)
Test: ROCK assay: phosphorylation of FITC peptide substrate, LABCHIP 3000 mobility shift
Type: biochemical
Settings: 5 μM ATP, 1.5 μM peptide substrate; read-out: ROCK2 Activity (ROCK IC50 range)
Method in brief: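 IC50 values come from curve-fitting percent kinase inhibition across a compound dilution series. The reaction is started with Rho kinase variant in HEPES pH 7.5 buffer with MgCl2, Brij-35 and DTT, with 5 μM ATP, 1.5 μM FITC-labelled peptide and under 2% DMSO. After EDTA quench, product and substrate are separated by microfluidic mobility shift.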

Chain of ROCK2 (O75116 whole entry, species assumed): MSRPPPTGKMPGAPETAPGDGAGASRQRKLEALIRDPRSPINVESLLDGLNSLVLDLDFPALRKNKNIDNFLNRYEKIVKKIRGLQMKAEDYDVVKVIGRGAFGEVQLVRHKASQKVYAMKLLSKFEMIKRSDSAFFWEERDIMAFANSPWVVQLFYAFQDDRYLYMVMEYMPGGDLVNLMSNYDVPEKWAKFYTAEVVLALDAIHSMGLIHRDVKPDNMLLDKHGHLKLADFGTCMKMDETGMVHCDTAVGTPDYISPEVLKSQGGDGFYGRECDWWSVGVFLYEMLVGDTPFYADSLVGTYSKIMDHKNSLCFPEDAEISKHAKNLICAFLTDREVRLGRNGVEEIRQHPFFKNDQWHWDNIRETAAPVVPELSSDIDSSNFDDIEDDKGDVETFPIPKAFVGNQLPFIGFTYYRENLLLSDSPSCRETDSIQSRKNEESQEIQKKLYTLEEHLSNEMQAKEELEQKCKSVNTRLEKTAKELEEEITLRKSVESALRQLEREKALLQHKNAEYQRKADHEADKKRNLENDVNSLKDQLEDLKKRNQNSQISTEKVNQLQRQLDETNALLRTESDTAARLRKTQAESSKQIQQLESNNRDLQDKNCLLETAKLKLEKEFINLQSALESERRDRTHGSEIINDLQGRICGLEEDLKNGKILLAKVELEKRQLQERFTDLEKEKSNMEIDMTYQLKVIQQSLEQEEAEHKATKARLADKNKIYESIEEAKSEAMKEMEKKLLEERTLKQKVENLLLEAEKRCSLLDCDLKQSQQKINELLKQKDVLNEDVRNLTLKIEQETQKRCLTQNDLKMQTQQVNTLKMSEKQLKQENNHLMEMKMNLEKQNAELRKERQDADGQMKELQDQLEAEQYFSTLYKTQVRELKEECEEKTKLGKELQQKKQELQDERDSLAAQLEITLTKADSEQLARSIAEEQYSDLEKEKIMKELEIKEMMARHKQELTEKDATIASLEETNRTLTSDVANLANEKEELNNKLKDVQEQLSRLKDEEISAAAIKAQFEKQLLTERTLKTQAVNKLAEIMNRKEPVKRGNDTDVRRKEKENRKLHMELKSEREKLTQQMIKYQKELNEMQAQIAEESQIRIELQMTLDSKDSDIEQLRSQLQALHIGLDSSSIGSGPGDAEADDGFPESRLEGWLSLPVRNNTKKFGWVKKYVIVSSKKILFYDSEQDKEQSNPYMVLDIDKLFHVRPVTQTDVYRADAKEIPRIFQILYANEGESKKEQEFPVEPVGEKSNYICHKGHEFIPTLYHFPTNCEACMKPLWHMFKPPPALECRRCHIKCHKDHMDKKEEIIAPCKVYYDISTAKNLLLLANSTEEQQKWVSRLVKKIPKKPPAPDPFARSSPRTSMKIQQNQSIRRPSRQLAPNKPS

| Compound | pIC50 |
| --- | --- |
| COc1cccc(-n2cc(C(=O)NC3CC4(C3)CC(c3n[nH]c(=O)c5ccccc35)C4)nn2)c1 [Example 116, 1-(3-methoxyphenyl)-N-((aR)-6-(4-oxo-3,4-dihydrophthalazin-1-yl)spiro[3.3]heptan-2-yl)-1H-1,2,3-triazole-4-carboxamide] | 8.30 to 8.70 |
| COc1ccccc1-n1nnc(C(=O)NC2CC3(C2)CC(c2n[nH]c(=O)c4ccccc24)C3)c1C [Example 117, 1-(2-methoxyphenyl)-5-methyl-N-((aR)-6-(4-oxo-3,4-dihydrophthalazin-1-yl)spiro[3.3]heptan-2-yl)-1H-1,2,3-triazole-4-carboxamide] | 7.00 to 7.82 |
| O=C(NC1CC2(C1)CC(c1n[nH]c(=O)c3ccccc13)C2)c1noc(-c2ccc(F)cc2)n1 [Example 118, 5-(4-fluorophenyl)-N-((aR)-6-(4-oxo-3,4-dihydrophthalazin-1-yl)spiro[3.3]heptan-2-yl)-1,2,4-oxadiazole-3-carboxamide] | 7.00 to 7.82 |
| O=C(N[C@H]1CC2(C1)C[C@H](c1n[nH]c(=O)c3ccccc31)C2)c1cnn2cc(OC[C@@H](O)C(F)(F)F)ccc12 (stereo partly drawn) [Example 119, N-((aR)-6-(4-oxo-3,4-dihydrophthalazin-1-yl)spiro[3.3]heptan-2-yl)-6-(3,3,3-trifluoro-2-hydroxypropoxy)pyrazolo[1,5-a]pyridine-3-carboxamide] | 8.70 to 9.70 |
| O=C(N[C@H]1CC2(C1)C[C@H](c1n[nH]c(=O)c3ccccc31)C2)c1cnn2cc(OC[C@@H](O)C(F)(F)F)ccc12 (stereo partly drawn) [Example 120, N-((aR)-6-(4-oxo-3,4-dihydrophthalazin-1-yl)spiro[3.3]heptan-2-yl)-6-(3,3,3-trifluoro-2-hydroxypropoxy)pyrazolo[1,5-a]pyridine-3-carboxamide] | 8.70 to 9.70 |
| O=C(N[C@H]1CC2(C1)C[C@H](c1n[nH]c(=O)c3ccccc31)C2)c1cnn2cc(O[C@@H]3CCOC3)ccc12 (stereo partly drawn) [Example 121, N-((aR)-6-(4-oxo-3,4-dihydrophthalazin-1-yl)spiro[3.3]heptan-2-yl)-6-((tetrahydrofuran-3-yl)oxy)pyrazolo[1,5-a]pyridine-3-carboxamide] | 8.70 to 9.70 |
| O=C(N[C@H]1CC2(C1)C[C@H](c1n[nH]c(=O)c3ccccc31)C2)c1cnn2cc(O[C@@H]3CCOC3)ccc12 (stereo partly drawn) [Example 122, N-((aR)-6-(4-oxo-3,4-dihydrophthalazin-1-yl)spiro[3.3]heptan-2-yl)-6-((tetrahydrofuran-3-yl)oxy)pyrazolo[1,5-a]pyridine-3-carboxamide] | 8.70 to 9.70 |
| Cc1cccc2c(C(=O)N[C@H]3CC4(C3)C[C@H](c3n[nH]c(=O)c5ccccc53)C4)cnn12 (stereo partly drawn) [Example 123, 7-methyl-N-((aR)-6-(4-oxo-3,4-dihydrophthalazin-1-yl)spiro[3.3]heptan-2-yl)pyrazolo[1,5-a]pyridine-3-carboxamide] | 8.30 to 8.70 |
| COc1c(C(=O)NC2CC3(C2)CC(c2n[nH]c(=O)c4ccccc24)C3)nc2ccccn12 (stereo not drawn) [Example 124, 3-methoxy-N-((αR)-6-(4-oxo-3,4-dihydrophthalazin-1-yl)spiro[3.3]heptan-2-yl)imidazo[1,2-α]pyridine-2-carboxamide] | 7.00 to 7.82 |
| O=C(NC1CC2(C1)CC(c1n[nH]c(=O)c3ccccc13)C2)c1cnn2c(C3CC3)c(OCc3ccccc3)ccc12 (stereo not drawn) [Example 125, 6-(benzyloxy)-7-cyclopropyl-N-((αR)-6-(4-oxo-3,4-dihydrophthalazin-1-yl)spiro[3.3]heptan-2-yl)pyrazolo[1,5-α]pyridin-3-carboxamide] | 8.30 to 8.70 |
| Cc1c(OCc2ccccc2)ccc2c(C(=O)NC3CC4(C3)CC(c3n[nH]c(=O)c5ccccc35)C4)cnn12 (stereo not drawn) [Example 126, 6-(benzyloxy)-7-methyl-N-((αR)-6-(4-oxo-3,4-dihydrophthalazin-1-yl)spiro[3.3]heptan-2-yl)pyrazolo[1,5-α]pyridine-3-carboxamide] | 8.70 to 9.70 |
| N#Cc1c(OCc2ccccc2)ccc2c(C(=O)NC3CC4(C3)CC(c3n[nH]c(=O)c5ccccc35)C4)cnn12 (stereo not drawn) [Example 127, 6-(benzyloxy)-7-cyano-N-((αR)-6-(4-oxo-3,4-dihydrophthalazin-1-yl)spiro[3.3]heptan-2-yl)pyrazolo[1,5-α]pyridine-3-carboxamide] | 8.70 to 9.70 |
| O=C(NC1CC2(C1)CC(c1n[nH]c(=O)c3ccccc13)C2)c1cnn2c(C3CC3)c(O)ccc12 (stereo not drawn) [Example 128, 7-cyclopropyl-6-hydroxy-N-((αR)-6-(4-oxo-3,4-dihydrophthalazin-1-yl)spiro[3.3]heptan-2-yl)pyrazolo[1,5-α]pyridine-3-carboxamide] | 8.30 to 8.70 |
| COc1ccccc1-n1cc(C(=O)NC2CC3(C2)CC(c2n[nH]c(=O)c4ccccc24)C3)nn1 (stereo not shown) [Example 129, 1-(2-methoxyphenyl)-N-((αR)-6-(4-oxo-3,4-dihydrophthalazin-1-yl)spiro[3.3]heptan-2-yl)-1H-1,2,3-triazole-4-carboxamide] | 7.82 to 8.29 |
| CN(C)Cc1c(OCc2ccccc2)ccc2c(C(=O)NC3CC4(C3)CC(c3n[nH]c(=O)c5ccccc35)C4)cnn12 (stereo not drawn) [Example 130, 6-(benzyloxy)-7-((dimethylamino)methyl)-N-((αR)-6-(4-oxo-3,4-dihydrophthalazin-1-yl)spiro[3.3]heptan-2-yl)pyrazolo[1,5-α]pyridine-3-carboxamide] | 7.82 to 8.29 |
| O=C(NC1CC2(C1)CC(c1n[nH]c(=O)c3ccccc13)C2)c1cnn2cc(OC(CF)CF)ccc12 (stereo not drawn) [Example 131, 6-((1,3-difluoropropan-2-yl)oxy)-N-((αR)-6-(4-oxo-3,4-dihydrophthalazin-1-yl)spiro[3.3]heptan-2-yl)pyrazolo[1,5-α]pyridine-3-carboxamide] | 8.70 to 9.70 |
| O=C(NC1CC2(C1)CC(c1n[nH]c(=O)c3ccccc13)C2)c1cnn2cc(OC3CCS(=O)(=O)CC3)ccc12 (stereo not drawn) [Example 132, 6-((1,1-dioxidotetrahydro-2H-thiopyran-4-yl)oxy)-N-((αR)-6-(4-oxo-3,4-dihydrophthalazin-1-yl)spiro[3.3]heptan-2-yl)pyrazolo[1,5-α]pyridine-3-carboxamide] | 8.70 to 9.70 |
| O=C(NC1CC2(C1)CC(c1n[nH]c(=O)c3ccccc13)C2)c1cnn2cc(OCCC(F)(F)F)ccc12 (stereo not drawn) [Example 133, N-((αR)-6-(4-oxo-3,4-dihydrophthalazin-1-yl)spiro[3.3]heptan-2-yl)-6-(3,3,3-trifluoropropoxy)pyrazolo[1,5-α]pyridine-3-carboxamide] | 8.70 to 9.70 |
| O=C(NC1CC2(C1)CC(c1n[nH]c(=O)c3ccccc13)C2)c1cnn2cc(OC3CCC(F)(F)CC3)ccc12 (stereo not drawn) [Example 134, 6-((4,4-difluorocyclohexyl)oxy)-N-((αR)-6-(4-oxo-3,4-dihydrophthalazin-1-yl)spiro[3.3]heptan-2-yl)pyrazolo[1,5-α]pyridine-3-carboxamide] | 8.70 to 9.70 |
| O=C(NC1CC2(C1)CC(c1n[nH]c(=O)c3ccccc13)C2)c1cnn2cc(OC3CCOCC3)ccc12 (stereo not drawn) [Example 135, N-((αR)-6-(4-oxo-3,4-dihydrophthalazin-1-yl)spiro[3.3]heptan-2-yl)-6-((tetrahydro-2H-pyran-4-yl)oxy)pyrazolo[1,5-α]pyridine-3-carboxamide] | 8.70 to 9.70 |
| COC(=O)N1CC(Oc2ccc3c(C(=O)NC4CC5(C4)CC(c4n[nH]c(=O)c6ccccc46)C5)cnn3c2)C1 (stereo not shown) [Example 136] | 8.30 to 8.70 |
| O=C(NC1CC2(C1)CC(c1n[nH]c(=O)c3ccccc13)C2)c1cnn2cc(O)ccc12 (stereo not drawn) [Example 137, 6-hydroxy-N-((αR)-6-(4-oxo-3,4-dihydrophthalazin-1-yl)spiro[3.3]heptan-2-yl)pyrazolo[1,5-α]pyridine-3-carboxamide] | 8.30 to 8.70 |
| O=C(NC1CC2(C1)CC(c1n[nH]c(=O)c3ccccc13)C2)c1cnn2cc(OC3CC(F)(F)C3)ccc12 (stereo not drawn) [Example 138, 6-(3,3-difluorocyclobutoxy)-N-((αR)-6-(4-oxo-3,4-dihydrophthalazin-1-yl)spiro[3.3]heptan-2-yl)pyrazolo[1,5-α]pyridine-3-carboxamide] | 8.70 to 9.70 |
| O=C(NC1CC2(C1)CC(c1n[nH]c(=O)c3ccccc13)C2)c1cnn2cc(OCCOCC(F)(F)F)ccc12 (stereo not drawn) [Example 139, N-((αR)-6-(4-oxo-3,4-dihydrophthalazin-1-yl)spiro[3.3]heptan-2-yl)-6-(2-(2,2,2-trifluoroethoxy)ethoxy)pyrazolo[1,5-α]pyridine-3-carboxamide] | 8.70 to 9.70 |
| O=C(NC1CC2(C1)CC(c1n[nH]c(=O)c3ccccc13)C2)c1cnn2cc(OCc3nnc(C4CC4)s3)ccc12 (stereo not drawn) [Example 140, 6-((5-cyclopropyl-1,3,4-thiadiazol-2-yl)methoxy)-N-((αR)-6-(4-oxo-3,4-dihydrophthalazin-1-yl)spiro[3.3]heptan-2-yl)pyrazolo[1,5-α]pyridine-3-carboxamide] | 8.70 to 9.70 |
| O=C(NC1CC2(C1)CC(c1n[nH]c(=O)c3ccccc13)C2)c1cnn2c(C(F)(F)F)c(OCc3ccccc3)ccc12 (stereo not drawn) [Example 141, 6-(benzyloxy)-N-((αR)-6-(4-oxo-3,4-dihydrophthalazin-1-yl)spiro[3.3]heptan-2-yl)-7-(trifluoromethyl)pyrazolo[1,5-α]pyridine-3-carboxamide] | 7.82 to 8.29 |
| CC(C)(O)Cn1nc(C(=O)N[C@H]2CC3(C2)C[C@H](c2n[nH]c(=O)c4ccccc42)C3)c2ccc(C3CC3)cc21 (stereo partly drawn) [Example 142, 6-cyclopropyl-1-(2-hydroxy-2-methylpropyl)-N-((aR)-6-(4-oxo-3,4-dihydrophthalazin-1-yl)spiro[3.3]heptan-2-yl)-1H-indazole-3-carboxamide] | 8.30 to 8.70 |
| CC(C)(O)Cn1nc(C(=O)N[C@H]2CC3(C2)C[C@H](c2n[nH]c(=O)c4ccccc42)C3)c2ccc(-c3ccccc3)cc21 (stereo partly drawn) [Example 143, 1-(2-hydroxy-2-methylpropyl)-N-((aR)-6-(4-oxo-3,4-dihydrophthalazin-1-yl)spiro[3.3]heptan-2-yl)-6-phenyl-1H-indazole-3-carboxamide] | 8.30 to 8.70 |
